# Measurements as given in ChEMBL document CHEMBL4346677, “Compounds based on 5-(perylen-3-ylethynyl)uracil scaffold: High activity against tick-borne encephalitis virus and non-specific activity against enterovirus A” (Eur J Med Chem, 2019).
# Active and inactive are the calls of the source. No cut-off for these calls is given here.
# System: RD
# Experiment: Cytotoxicity against human RD cells assessed as formation of syncytium-like patterns of cells at 50 uM after 7 days by microscopic method
# Format: cell-based
# Details: 168 h
row,Compound,Activity
1,CCCCNC(=O)Cn1cc(C#Cc2ccc3c4cccc5cccc(c6cccc2c63)c54)c(=O)[nH]c1=O,Toxic
2,CC(C)(C)C(=O)OCn1c(=O)c(C#Cc2ccc3c4cccc5cccc(c6cccc2c63)c54)cn(CC(=O)NCCCO)c1=O,Toxic
3,O=C(Cn1cc(C#Cc2ccc3c4cccc5cccc(c6cccc2c63)c54)c(=O)[nH]c1=O)NCCO,Toxic
4,O=C(Cn1cc(C#Cc2ccc3c4cccc5cccc(c6cccc2c63)c54)c(=O)[nH]c1=O)N(CCO)CCO,Toxic
5,CC(C)(C)C(=O)OCn1c(=O)c(C#Cc2ccc3c4cccc5cccc(c6cccc2c63)c54)cn(CC(=O)NC[C@H](O)C(C)(C)CO)c1=O,Toxic

# System: Echovirus
# Experiment: Antiviral activity against Echovirus 30 isolate 48461
# Format: functional, organism-based
# Details: not given
row,Compound,Activity
1,CCCCNC(=O)Cn1cc(C#Cc2ccc3c4cccc5cccc(c6cccc2c63)c54)c(=O)[nH]c1=O,inactive
2,CC(C)(C)C(=O)OCn1c(=O)c(C#Cc2ccc3c4cccc5cccc(c6cccc2c63)c54)cn(CC(=O)NCCCO)c1=O,inactive
3,O=C(Cn1cc(C#Cc2ccc3c4cccc5cccc(c6cccc2c63)c54)c(=O)[nH]c1=O)NCCO,inactive
4,O=C(Cn1cc(C#Cc2ccc3c4cccc5cccc(c6cccc2c63)c54)c(=O)[nH]c1=O)N(CCO)CCO,inactive
5,CC(C)(C)C(=O)OCn1c(=O)c(C#Cc2ccc3c4cccc5cccc(c6cccc2c63)c54)cn(CC(=O)NC[C@H](O)C(C)(C)CO)c1=O,inactive

# System: Poliovirus 1
# Experiment: Antiviral activity against poliovirus type 1 sabin 1
# Format: functional, organism-based
# Details: not given
row,Compound,Activity
1,CCCCNC(=O)Cn1cc(C#Cc2ccc3c4cccc5cccc(c6cccc2c63)c54)c(=O)[nH]c1=O,inactive
2,CC(C)(C)C(=O)OCn1c(=O)c(C#Cc2ccc3c4cccc5cccc(c6cccc2c63)c54)cn(CC(=O)NCCCO)c1=O,inactive
3,O=C(Cn1cc(C#Cc2ccc3c4cccc5cccc(c6cccc2c63)c54)c(=O)[nH]c1=O)NCCO,inactive
4,O=C(Cn1cc(C#Cc2ccc3c4cccc5cccc(c6cccc2c63)c54)c(=O)[nH]c1=O)N(CCO)CCO,inactive
5,CC(C)(C)C(=O)OCn1c(=O)c(C#Cc2ccc3c4cccc5cccc(c6cccc2c63)c54)cn(CC(=O)NC[C@H](O)C(C)(C)CO)c1=O,inactive

# System: not listed separately
# Experiment: Cytotoxicity against PEK cells assessed as formation of syncytium-like patterns of cells at 50 uM after 7 days by microscopic method
# Format: cell-based, Sus scrofa
# Details: pig, 168 h
row,Compound,Activity
1,CCCCNC(=O)Cn1cc(C#Cc2ccc3c4cccc5cccc(c6cccc2c63)c54)c(=O)[nH]c1=O,Toxic
2,CC(C)(C)C(=O)OCn1c(=O)c(C#Cc2ccc3c4cccc5cccc(c6cccc2c63)c54)cn(CC(=O)NCCCO)c1=O,Toxic
3,O=C(Cn1cc(C#Cc2ccc3c4cccc5cccc(c6cccc2c63)c54)c(=O)[nH]c1=O)NCCO,Toxic
4,O=C(Cn1cc(C#Cc2ccc3c4cccc5cccc(c6cccc2c63)c54)c(=O)[nH]c1=O)N(CCO)CCO,Toxic
5,CC(C)(C)C(=O)OCn1c(=O)c(C#Cc2ccc3c4cccc5cccc(c6cccc2c63)c54)cn(CC(=O)NC[C@H](O)C(C)(C)CO)c1=O,Toxic

# System: not listed separately
# Experiment: Cytotoxicity against PEK cells assessed as reduction in cell viability after 24 hrs by microscopic method
# Format: cell-based, Sus scrofa
# Details: pig
row,Compound,CC50 at 24 h [µM]
1,CCCCNC(=O)Cn1cc(C#Cc2ccc3c4cccc5cccc(c6cccc2c63)c54)c(=O)[nH]c1=O,> 50
2,CC(C)(C)C(=O)OCn1c(=O)c(C#Cc2ccc3c4cccc5cccc(c6cccc2c63)c54)cn(CC(=O)NCCCO)c1=O,> 50
3,O=C(Cn1cc(C#Cc2ccc3c4cccc5cccc(c6cccc2c63)c54)c(=O)[nH]c1=O)NCCO,> 50
4,O=C(Cn1cc(C#Cc2ccc3c4cccc5cccc(c6cccc2c63)c54)c(=O)[nH]c1=O)N(CCO)CCO,> 50
5,CC(C)(C)C(=O)OCn1c(=O)c(C#Cc2ccc3c4cccc5cccc(c6cccc2c63)c54)cn(CC(=O)NC[C@H](O)C(C)(C)CO)c1=O,> 50

# System: not listed separately
# Experiment: Cytotoxicity against human RD cells assessed as reduction in cell viability after 7 days by microscopic method
# Format: cell-based
# Details: not given
row,Compound,CC50 at 168 h [µM]
1,CCCCNC(=O)Cn1cc(C#Cc2ccc3c4cccc5cccc(c6cccc2c63)c54)c(=O)[nH]c1=O,76
2,CC(C)(C)C(=O)OCn1c(=O)c(C#Cc2ccc3c4cccc5cccc(c6cccc2c63)c54)cn(CC(=O)NCCCO)c1=O,10
3,O=C(Cn1cc(C#Cc2ccc3c4cccc5cccc(c6cccc2c63)c54)c(=O)[nH]c1=O)NCCO,> 104
4,O=C(Cn1cc(C#Cc2ccc3c4cccc5cccc(c6cccc2c63)c54)c(=O)[nH]c1=O)N(CCO)CCO,> 104
5,CC(C)(C)C(=O)OCn1c(=O)c(C#Cc2ccc3c4cccc5cccc(c6cccc2c63)c54)cn(CC(=O)NC[C@H](O)C(C)(C)CO)c1=O,19

# System: Vero
# Experiment: Cytotoxicity against African green monkey Vero cells assessed as formation of syncytium-like patterns of cells at 50 uM after 7 days by microscopic method
# Format: cell-based
# Details: chlorocebus sabaeus, 168 h
row,Compound,Activity
1,CCCCNC(=O)Cn1cc(C#Cc2ccc3c4cccc5cccc(c6cccc2c63)c54)c(=O)[nH]c1=O,Toxic
2,CC(C)(C)C(=O)OCn1c(=O)c(C#Cc2ccc3c4cccc5cccc(c6cccc2c63)c54)cn(CC(=O)NCCCO)c1=O,Toxic
3,O=C(Cn1cc(C#Cc2ccc3c4cccc5cccc(c6cccc2c63)c54)c(=O)[nH]c1=O)NCCO,Toxic
4,O=C(Cn1cc(C#Cc2ccc3c4cccc5cccc(c6cccc2c63)c54)c(=O)[nH]c1=O)N(CCO)CCO,Toxic
5,CC(C)(C)C(=O)OCn1c(=O)c(C#Cc2ccc3c4cccc5cccc(c6cccc2c63)c54)cn(CC(=O)NC[C@H](O)C(C)(C)CO)c1=O,Toxic

# System: not listed separately
# Experiment: Cytotoxicity against PEK cells assessed as reduction in cell viability after 7 days by microscopic method
# Format: cell-based, Sus scrofa
# Details: pig
row,Compound,CC50 at 168 h [µM]
1,CCCCNC(=O)Cn1cc(C#Cc2ccc3c4cccc5cccc(c6cccc2c63)c54)c(=O)[nH]c1=O,> 50
2,CC(C)(C)C(=O)OCn1c(=O)c(C#Cc2ccc3c4cccc5cccc(c6cccc2c63)c54)cn(CC(=O)NCCCO)c1=O,> 50
3,O=C(Cn1cc(C#Cc2ccc3c4cccc5cccc(c6cccc2c63)c54)c(=O)[nH]c1=O)NCCO,> 50
4,O=C(Cn1cc(C#Cc2ccc3c4cccc5cccc(c6cccc2c63)c54)c(=O)[nH]c1=O)N(CCO)CCO,> 50
5,CC(C)(C)C(=O)OCn1c(=O)c(C#Cc2ccc3c4cccc5cccc(c6cccc2c63)c54)cn(CC(=O)NC[C@H](O)C(C)(C)CO)c1=O,> 50

# System: not listed separately
# Experiment: Solubility of compound in 15% DMSO by spectrophotometric analysis
# Format: physicochemical
# Details: not given
row,Compound,solubility [µM]
1,CC(C)(C)C(=O)OCn1c(=O)c(C#Cc2ccc3c4cccc5cccc(c6cccc2c63)c54)cn(CC(=O)NCCCO)c1=O,49

# System: not listed separately
# Experiment: Cytotoxicity against African green monkey Vero cells assessed as reduction in cell viability after 7 days by microscopic method
# Format: cell-based
# Details: chlorocebus sabaeus
row,Compound,CC50 at 168 h [µM]
1,CC(C)(C)C(=O)OCn1c(=O)c(C#Cc2ccc3c4cccc5cccc(c6cccc2c63)c54)cn(CC(=O)NCCCO)c1=O,> 50
2,O=C(Cn1cc(C#Cc2ccc3c4cccc5cccc(c6cccc2c63)c54)c(=O)[nH]c1=O)N(CCO)CCO,> 50
3,CC(C)(C)C(=O)OCn1c(=O)c(C#Cc2ccc3c4cccc5cccc(c6cccc2c63)c54)cn(CC(=O)NC[C@H](O)C(C)(C)CO)c1=O,> 50

# System: not listed separately
# Experiment: Cytotoxicity against African green monkey Vero cells assessed as reduction in cell viability after 24 hrs by microscopic method
# Format: cell-based
# Details: chlorocebus sabaeus
row,Compound,CC50 at 24 h [µM]
1,CC(C)(C)C(=O)OCn1c(=O)c(C#Cc2ccc3c4cccc5cccc(c6cccc2c63)c54)cn(CC(=O)NCCCO)c1=O,38
2,O=C(Cn1cc(C#Cc2ccc3c4cccc5cccc(c6cccc2c63)c54)c(=O)[nH]c1=O)N(CCO)CCO,> 50
3,CC(C)(C)C(=O)OCn1c(=O)c(C#Cc2ccc3c4cccc5cccc(c6cccc2c63)c54)cn(CC(=O)NC[C@H](O)C(C)(C)CO)c1=O,> 50

# System: not listed separately
# Experiment: Cytotoxicity against human RD cells assessed as reduction in cell viability after 24 hrs by microscopic method
# Format: cell-based
# Details: not given
row,Compound,CC50 at 24 h [µM]
1,CCCCNC(=O)Cn1cc(C#Cc2ccc3c4cccc5cccc(c6cccc2c63)c54)c(=O)[nH]c1=O,76
2,CC(C)(C)C(=O)OCn1c(=O)c(C#Cc2ccc3c4cccc5cccc(c6cccc2c63)c54)cn(CC(=O)NCCCO)c1=O,19
3,O=C(Cn1cc(C#Cc2ccc3c4cccc5cccc(c6cccc2c63)c54)c(=O)[nH]c1=O)NCCO,> 104
4,O=C(Cn1cc(C#Cc2ccc3c4cccc5cccc(c6cccc2c63)c54)c(=O)[nH]c1=O)N(CCO)CCO,> 104
5,CC(C)(C)C(=O)OCn1c(=O)c(C#Cc2ccc3c4cccc5cccc(c6cccc2c63)c54)cn(CC(=O)NC[C@H](O)C(C)(C)CO)c1=O,19

# System: Enterovirus A71
# Experiment: Antiviral activity against Enterovirus A71 isolate 46973 infected in human RD cells assessed as reduction in virus induced cytopathic effect preincubated with viral suspension for 1 hr followed by cell addition measured after 5 to 7 days
# Format: functional, organism-based
# Details: not given
row,Compound,EC50
1,CCCCNC(=O)Cn1cc(C#Cc2ccc3c4cccc5cccc(c6cccc2c63)c54)c(=O)[nH]c1=O,Not Active
2,CC(C)(C)C(=O)OCn1c(=O)c(C#Cc2ccc3c4cccc5cccc(c6cccc2c63)c54)cn(CC(=O)NCCCO)c1=O,Not Active
3,O=C(Cn1cc(C#Cc2ccc3c4cccc5cccc(c6cccc2c63)c54)c(=O)[nH]c1=O)NCCO,Not Active
4,O=C(Cn1cc(C#Cc2ccc3c4cccc5cccc(c6cccc2c63)c54)c(=O)[nH]c1=O)N(CCO)CCO,Not Active
5,CC(C)(C)C(=O)OCn1c(=O)c(C#Cc2ccc3c4cccc5cccc(c6cccc2c63)c54)cn(CC(=O)NC[C@H](O)C(C)(C)CO)c1=O,Not Active

# System: Tick-borne encephalitis virus
# Experiment: Antiviral activity against TBEV Absettarov infected in PEK cells assessed as plaque reduction preincubated for 1 hr followed by overlaying with 1.26% methylcellulose and measured after 6 days by gentian violet staining-based assay
# Format: functional, organism-based
# Details: not given
row,Compound,EC50 [µM]
1,CCCCNC(=O)Cn1cc(C#Cc2ccc3c4cccc5cccc(c6cccc2c63)c54)c(=O)[nH]c1=O,0.014
2,CC(C)(C)C(=O)OCn1c(=O)c(C#Cc2ccc3c4cccc5cccc(c6cccc2c63)c54)cn(CC(=O)NCCCO)c1=O,0.00043
3,O=C(Cn1cc(C#Cc2ccc3c4cccc5cccc(c6cccc2c63)c54)c(=O)[nH]c1=O)NCCO,0.003
4,O=C(Cn1cc(C#Cc2ccc3c4cccc5cccc(c6cccc2c63)c54)c(=O)[nH]c1=O)N(CCO)CCO,0.007
5,CC(C)(C)C(=O)OCn1c(=O)c(C#Cc2ccc3c4cccc5cccc(c6cccc2c63)c54)cn(CC(=O)NC[C@H](O)C(C)(C)CO)c1=O,0.00079
